This passage reports mutagenic call results from PubChem BioAssay AID1259407 (Chemical Carcinogenesis Research Information System (CCRIS), 2018).

Each structure is given as a SMILES string. Active and inactive are the calls of the source. No rule for the calls is given here.

The data set relates to CCRIS mutagenicity, Ames/micronucleus/aberration tests. Put plainly: CCRIS mutagenicity studies.
The mark [1] stands for this setting: Test System: AMES SALMONELLA TYPHIMURIUM, Strain/Indicator: TA97, Metabolic Activation: NONE, Method: PREINCUBATION

With `O=S(=O)(O)c1cc(S(=O)(=O)O)c2c(N=Nc3ccccc3)c(O)ccc2c1`, the mutagenic call is, setting by setting: (End Point: IN VITRO CHROMOSOMAL ABERRATIONS, Test System: CHO CELLS, Metabolic Activation: NONE) “inactive; negative”; (End Point: IN VITRO CHROMOSOMAL ABERRATIONS, Test System: CHO CELLS, Metabolic Activation: RAT, LIVER, S-9, AROCLOR 1254) “active; positive”; (Test System: AMES SALMONELLA TYPHIMURIUM, Strain/Indicator: TA97, Metabolic Activation: HAMSTER, LIVER, S-9, AROCLOR 1254 (10 OR 30%), Method: PREINCUBATION) “inactive; negative”; under setting [1], “inactive; negative”; (Test System: AMES SALMONELLA TYPHIMURIUM, Strain/Indicator: TA97, Metabolic Activation: RAT, LIVER, S-9, AROCLOR 1254 (10 OR 30%), Method: PREINCUBATION) “inactive; negative”; (Test System: AMES SALMONELLA TYPHIMURIUM, Strain/Indicator: TA98, Metabolic Activation: HAMSTER, LIVER, S-9, AROCLOR 1254 (10 OR 30%), Method: PREINCUBATION) “inactive; negative”. Also, the mutagenic call reads like this: (Test System: AMES SALMONELLA TYPHIMURIUM, Strain/Indicator: TA98, Metabolic Activation: NONE, Method: PREINCUBATION) “inactive; negative”; (Test System: AMES SALMONELLA TYPHIMURIUM, Strain/Indicator: TA98, Metabolic Activation: RAT, LIVER, S-9, AROCLOR 1254 (10 OR 30%), Method: PREINCUBATION) “inactive; negative”; (Test System: AMES SALMONELLA TYPHIMURIUM, Strain/Indicator: TA100, Metabolic Activation: HAMSTER, LIVER, S-9, AROCLOR 1254 (10 OR 30%), Method: PREINCUBATION) “inactive; negative”; (Test System: AMES SALMONELLA TYPHIMURIUM, Strain/Indicator: TA100, Metabolic Activation: NONE, Method: PREINCUBATION) “inactive; negative”; (Test System: AMES SALMONELLA TYPHIMURIUM, Strain/Indicator: TA100, Metabolic Activation: RAT, LIVER, S-9, AROCLOR 1254 (10 OR 30%), Method: PREINCUBATION) “inactive; negative”; (Test System: AMES SALMONELLA TYPHIMURIUM, Strain/Indicator: TA1535, Metabolic Activation: HAMSTER, LIVER, S-9, AROCLOR 1254 (10 OR 30%), Method: PREINCUBATION) “inactive; negative”. In addition, the mutagenic call was “inactive; negative” (Test System: AMES SALMONELLA TYPHIMURIUM, Strain/Indicator: TA1535, Metabolic Activation: NONE, Method: PREINCUBATION); “inactive; negative” (Test System: AMES SALMONELLA TYPHIMURIUM, Strain/Indicator: TA1535, Metabolic Activation: RAT, LIVER, S-9, AROCLOR 1254 (10 OR 30%), Method: PREINCUBATION); “inactive; negative. reevaluation of results: negative” (Test System: MOUSE LYMPHOMA, Strain/Indicator: L5178Y (TK+/TK-), Metabolic Activation: NONE, Method: SUSPENSION/PLATE); “active; positive. reevaluation of results: equivocal” (Test System: MOUSE LYMPHOMA, Strain/Indicator: L5178Y (TK+/TK-), Metabolic Activation: RAT, LIVER, S-9, AROCLOR 1254, Method: SUSPENSION/PLATE).
In the case of `CCCCN(CCC(C)=O)N=O`, the mutagenic call (Test System: AMES SALMONELLA TYPHIMURIUM, Strain/Indicator: TA1535, Metabolic Activation: RAT, LIVER, S-9, KC500 OR PHENOBARBITAL, Method: LIQUID SUSPENSION) was “active; positive”.
In the case of `Nc1cc2c3c(cccc3c1)-c1ccccc1-2`, the mutagenic call is “active; positive” (Test System: AMES SALMONELLA TYPHIMURIUM, Strain/Indicator: TA98, Metabolic Activation: RAT, LIVER, S-9, AROCLOR 1254 (2 OR 4%), Method: STANDARD PLATE); “active; positive” (Test System: AMES SALMONELLA TYPHIMURIUM, Strain/Indicator: TA100, Metabolic Activation: RAT, LIVER, S-9, AROCLOR 1254 (4%), Method: STANDARD PLATE); “active; positive” (Test System: AMES SALMONELLA TYPHIMURIUM, Strain/Indicator: TA1535, Metabolic Activation: RAT, LIVER, S-9, AROCLOR 1254 (4%), Method: STANDARD PLATE); “active; positive” (Test System: AMES SALMONELLA TYPHIMURIUM, Strain/Indicator: TA1537, Metabolic Activation: RAT, LIVER, S-9, AROCLOR 1254 (4%), Method: STANDARD PLATE).
On to `C=CCN=C=S`, for which the mutagenic call reads like this: (End Point: IN VITRO CHROMOSOMAL ABERRATIONS, Test System: CHINESE HAMSTER OVARY CELLS, Metabolic Activation: NONE) “active; positive”; (End Point: IN VITRO CHROMOSOMAL ABERRATIONS, Test System: CHINESE HAMSTER OVARY CELLS, Metabolic Activation: RAT, LIVER, S-9, AROCLOR 1254) “active; positive”; (End Point: IN VITRO CHROMOSOMAL ABERRATIONS, Test System: CHINESE HAMSTER OVARY CELLS, Metabolic Activation: RAT. LIVER, S-9, AROCLOR 1254) “inactive; negative”; under setting [1], “inactive; negative”; (Test System: AMES SALMONELLA TYPHIMURIUM, Strain/Indicator: TA97, Metabolic Activation: NONE, Method: PREINCUBATION (120 MIN)) “inactive; negative”; (Test System: AMES SALMONELLA TYPHIMURIUM, Strain/Indicator: TA97, Metabolic Activation: RAT, LIVER, S-9, AROCLOR 1254, Method: PREINCUBATION) “inactive; negative”. Also, the mutagenic call is “inactive; negative” (Test System: AMES SALMONELLA TYPHIMURIUM, Strain/Indicator: TA97, Metabolic Activation: S-9, Method: PREINCUBATION (120 MIN)); “inactive; negative” (Test System: AMES SALMONELLA TYPHIMURIUM, Strain/Indicator: TA98, Metabolic Activation: NONE, Method: PREINCUBATION (120 MIN)); “inactive; negative” (Test System: AMES SALMONELLA TYPHIMURIUM, Strain/Indicator: TA98, Metabolic Activation: NONE, Method: STANDARD PLATE); “active; positive” (Test System: AMES SALMONELLA TYPHIMURIUM, Strain/Indicator: TA98, Metabolic Activation: RAT LIVER S-9, AROCLOR 1254, Method: STANDARD PLATE); “inactive; negative” (Test System: AMES SALMONELLA TYPHIMURIUM, Strain/Indicator: TA98, Metabolic Activation: S-9, Method: PREINCUBATION (120 MIN)); “inactive; negative” (Test System: AMES SALMONELLA TYPHIMURIUM, Strain/Indicator: TA98, Metabolic Activation: S-9, Method: STANDARD PLATE). For the same compound, the mutagenic call is “inactive; negative” (Test System: AMES SALMONELLA TYPHIMURIUM, Strain/Indicator: TA100, Metabolic Activation: NONE, Method: PREINCUBATION (20, 60 OR 120 MIN)); “inactive; negative” (Test System: AMES SALMONELLA TYPHIMURIUM, Strain/Indicator: TA100, Metabolic Activation: NONE, Method: PREINCUBATION (120 MIN)); “inactive; negative” (Test System: AMES SALMONELLA TYPHIMURIUM, Strain/Indicator: TA100, Metabolic Activation: NONE, Method: STANDARD PLATE); “active; positive” (Test System: AMES SALMONELLA TYPHIMURIUM, Strain/Indicator: TA100, Metabolic Activation: RAT LIVER S-9, AROCLOR 1254, Method: STANDARD PLATE); “active; positive” (Test System: AMES SALMONELLA TYPHIMURIUM, Strain/Indicator: TA100, Metabolic Activation: RAT, LIVER, S-9, AROCLOR 1254 (3.8 MG PROTEIN/ML), Method: PREINCUBATION (60 OR 120 MIN)); “inactive; negative” (Test System: AMES SALMONELLA TYPHIMURIUM, Strain/Indicator: TA100, Metabolic Activation: RAT, LIVER, S-9, AROCLOR 1254 (3.8 OR 11.4 MG PROTEIN/ML), Method: PREINCUBATION (20 MIN)). Besides, the mutagenic call by setting is: (Test System: AMES SALMONELLA TYPHIMURIUM, Strain/Indicator: TA100, Metabolic Activation: RAT, LIVER, S-9, AROCLOR 1254 (11.4 MG PROTEIN/ML), Method: PREINCUBATION (60 MIN)) “inactive; negative”; (Test System: AMES SALMONELLA TYPHIMURIUM, Strain/Indicator: TA100, Metabolic Activation: RAT, LIVER, S-9, AROCLOR 1254 (11.4 MG PROTEIN/ML), Method: PREINCUBATION (120 MIN)) “active; positive”; (Test System: AMES SALMONELLA TYPHIMURIUM, Strain/Indicator: TA100, Metabolic Activation: S-9, Method: PREINCUBATION (120 MIN)) “inactive; negative”; (Test System: AMES SALMONELLA TYPHIMURIUM, Strain/Indicator: TA100, Metabolic Activation: S-9, Method: STANDARD PLATE) “inactive; negative”; (Test System: AMES SALMONELLA TYPHIMURIUM, Strain/Indicator: TA102, Metabolic Activation: NONE, Method: PREINCUBATION) “inactive; negative”; (Test System: AMES SALMONELLA TYPHIMURIUM, Strain/Indicator: TA102, Metabolic Activation: RAT, LIVER, S-9, AROCLOR 1254, Method: PREINCUBATION) “inactive; negative”. The mutagenic call (Test System: UDS RAT HEPATOCYTES, Strain/Indicator: THY-INCORP, Metabolic Activation: IN VIVO, Method: AUTORADIOGRAPHY) is “inactive; negative”.
